Test results from PubChem BioAssay AID504313 (Emory University Molecular Libraries Screening Center, 2011).
pIC50: −log10 of the molar value. Activity calls are given as the source filed them. How the calls were made is not given here.

These molecules were tested against X-box-binding protein 1 (Homo sapiens) (UniProt P17861) (assay: inhibitors of XBP1 reporter signal, dose response, counter-screen, cell-based (AID 504313;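 further: CHO cells carrying an XBP1 reporter stimulated with tunicamycin; potency is for inhibition of the tunicamycin-induced reporter signal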)). Details: XBP1 reporter cell assay, percent of control.

Q: With `CCOC(=O)c1c(C(C)(C)C)oc2ccc(O)cc12` as the molecule, how does the IC50 read?
A: > 10 µM (inactive)

Q: `CCOC(=O)c1cc([N+](=O)[O-])c([N+](=O)[O-])cc1NC(C)=O` was tested. Which IC50 did it give?
A: inactive

Q: `CC(C)(C)c1ccc(-c2n[nH]c(=S)n2C2CCCC2)cc1` was tested. Which IC50 did it give?
A: > 10 µM (inactive)

Q: Which IC50 does the source give for `CCOC(=O)c1c(N)sc(C(O)(C(F)(F)F)C(F)(F)F)c1-c1ccc(Cl)cc1` here?
A: inactive

Q: For `COCCCn1c(N)c(C(=O)NCCC(C)C)c2nc3ccccc3nc21`, which IC50 is on record?
A: > 10 µM (inactive)

Q: How did the IC50 turn out when `COc1ccc(NC(=O)/C(Cl)=C(/Cl)S(=O)(=O)Cc2ccc(C)cc2)cn1` was run?
A: inactive

Q: For `COC(=O)C(O)(c1ccc(NC(=S)NC(=O)c2ccc(Cl)cc2Cl)c(C)c1)C(F)(F)F` (centres undefined), which IC50 is on record?
A: > 10 µM (inactive)

Q: With `Cc1ccc2nc(NC(=O)CSCC(=O)OCC(=O)c3ccc(Br)cc3)sc2c1` as the molecule, how does the pIC50 read?
A: 5.45

Q: For `FC(F)(F)c1cc(-c2cccs2)nc(-n2cc(Br)cn2)n1`, which IC50 is on record?
A: > 10 µM (inactive)

Q: For `O=C1C(C2=NC(c3ccccn3)C3C(=O)N(c4ccc(OC(F)(F)F)cc4)C(=O)C23)=C(O)c2ccccc21` (centres undefined), which IC50 is on record?
A: inactive

Q: `Cc1ccc(-c2ccc(/C=C3\C(=O)ON=C3c3ccccc3)o2)c([N+](=O)[O-])c1` was tested. Which IC50 did it give?
A: > 10 µM (inactive)

Q: Which IC50 does the source give for `O=C(c1ccc(Cl)cc1)c1c[nH]c(C(=O)NNc2cccc(Cl)n2)c1` here?
A: > 10 µM (inactive)

Q: How did the pIC50 turn out when `Cc1ccc(NC(=O)O/N=C/c2c(C)nn(C(C)(C)C)c2C)cc1Cl` was run?
A: > 6.80

Q: With `CCOc1ccc(-c2nc(CSCC(=O)NCc3ccco3)c(C)o2)cc1` as the molecule, how does the pIC50 read?
A: > 6.80

Q: How did the IC50 turn out when `CCC(Cc1ccccc1)n1c(=S)[nH]c2ccccc2c1=O` (centres undefined) was run?
A: > 10 µM (inactive)

Q: For `Nc1ccc2c(c1)C(=O)C(=O)c1ccccc1-2`, which IC50 is on record?
A: inactive

Q: `OC1(c2cccc(C(F)(F)F)c2)CCN(c2ncnc3c2[nH]c2ccc(F)cc23)CC1` was tested. Which pIC50 did it give?
A: 5.41

Q: For `NC(=O)CC(NC(=O)Cc1cccc2ccccc12)c1ccc(NCc2ccc(F)cc2)c([N+](=O)[O-])c1` (centres undefined), which IC50 is on record?
A: > 10 µM (inactive)

Q: `Cc1ccc(C)c(NC(=S)NC(NC(=O)/C=C/c2ccccc2)C(Cl)(Cl)Cl)c1` (centres undefined) was tested. Which IC50 did it give?
A: > 10 µM (inactive)

Q: For `CCOC(=O)c1nc(S(C)(=O)=O)ncc1Cl`, which IC50 is on record?
A: inactive

Q: `CCC(C)c1ccc(O)c(NC(=O)c2cncc(Br)c2)c1` (centres undefined) was tested. Which IC50 did it give?
A: inactive

Q: How did the pIC50 turn out when `Cc1ccc(/C=C2\SC(=S)N(CCCC(=O)Nc3ccccn3)C2=O)cc1` was run?
A: > 6.80

Q: `Cc1ccc(OCC(=O)N2CCN(c3nnc(-c4ccc(C)cc4)c4ccccc34)CC2)cc1` was tested. Which IC50 did it give?
A: inactive

Q: With `CCCCc1nc2ccccc2c(=O)n1NC(=O)c1c(O)c2ccccc2n(C)c1=O` as the molecule, how does the IC50 read?
A: > 10 µM (inactive)

Q: `CCCCCCCCCCCCCCCC[n+]1cccc(C(=O)N(CC)CC)c1` was tested. Which IC50 did it give?
A: inactive

Q: Which IC50 does the source give for `CCCCCc1c(C)nc(NCc2ccccc2)[nH]c1=O` here?
A: > 10 µM (inactive)

Q: Which IC50 does the source give for `CS(=O)(=O)c1nc(-c2ccccc2)cc(C(F)(F)F)n1` here?
A: inactive

Q: How did the IC50 turn out when `C=CCOC(=O)C1=C(C)NC(SCC(=O)Nc2nccs2)=C(C#N)C1c1ccc(Cl)cc1` (centres undefined) was run?
A: > 10 µM (inactive)

Q: With `COc1ccc(N=c2oc3ccc(OC)cc3cc2-c2nc3ccccc3[nH]2)cc1` as the molecule, how does the IC50 read?
A: inactive

Q: `O=C(NCCNC(=O)c1cc(OCC(F)(F)F)ccc1OCC(F)(F)F)Nc1cccc(C(F)(F)F)c1` was tested. Which IC50 did it give?
A: > 10 µM (inactive)

Q: With `Cc1ccc(COc2ccc(Br)cc2/C=N/O)cc1` as the molecule, how does the IC50 read?
A: > 10 µM (inactive)

Q: How did the IC50 turn out when `Cc1nn(CCC#N)c2nc(-c3ccccc3)cc(C(F)(F)F)c12` was run?
A: inactive

Q: Which IC50 does the source give for `CCOC(=O)COc1ccccc1/C=C\[N+](=O)[O-]` here?
A: inactive

Q: How did the IC50 turn out when `Cc1ccc2nc(NC(=O)C3CCN(S(=O)(=O)c4cc([N+](=O)[O-])ccc4Cl)CC3)sc2c1` was run?
A: inactive

Q: Which IC50 does the source give for `Cn1c(=O)[nH]c(=O)c2c1nc([N+](=O)[O-])n2Cc1ccccc1` here?
A: inactive

Q: `C=C1C(=O)O[C@@H]2C[C@@H](C)[C@@H]3C=CC(=O)[C@@]3(C)[C@@H](O)[C@H]12` was tested. Which pIC50 did it give?
A: 5.61

Q: `O=C(Cc1ccccc1)NC(=S)Nc1cccc(C(F)(F)F)c1` was tested. Which IC50 did it give?
A: inactive

Q: How did the IC50 turn out when `CN1CCN(c2ccc(-c3ccc4ccccc4n3)cc2)CC1` was run?
A: < 0.16 µM (inactive)

Q: `Cc1nc(Nc2ccc(F)cc2)[nH]c(=O)c1CCC(C)C` was tested. Which IC50 did it give?
A: inactive

Q: With `CCOc1cc(/C=C2/C(=O)ON=C2C)ccc1OCc1ccccc1F` as the molecule, how does the IC50 read?
A: > 10 µM (inactive)

Q: How did the IC50 turn out when `Cc1cccc(NC(=S)NC(NC(=O)OCc2ccccc2)C(Cl)(Cl)Cl)c1` (centres undefined) was run?
A: > 10 µM (inactive)

Q: With `CCCc1cc(C(=O)Cc2ccc(F)cc2)c(O)cc1O` as the molecule, how does the IC50 read?
A: inactive

Q: How did the IC50 turn out when `COc1ccc(CNc2oc(-c3cccc4ccccc34)nc2C#N)cc1` was run?
A: > 10 µM (inactive)

Q: Which IC50 does the source give for `O=C(Nc1ccc(C(F)(F)F)cc1)c1cc(-c2cccnc2)nc2ccc(Br)cc12` here?
A: > 10 µM (inactive)

Q: Which IC50 does the source give for `CN(C)c1ccc(/C=C2\SC(=O)N(CCc3nnc(N)s3)C2=O)cc1` here?
A: inactive

Q: How did the IC50 turn out when `CC(C)(C)c1cc(-c2csc(Nc3ccccc3)[n+]2Cc2ccc(C(=O)O)cc2)cc(C(C)(C)C)c1O` was run?
A: inactive

Q: For `Oc1ccc(Br)cc1-c1cc(-c2ccccc2F)[nH]n1`, which IC50 is on record?
A: > 10 µM (inactive)

Q: `O=C(NCc1nc(-c2ccc(C(F)(F)F)cc2)no1)Nc1ccc(OC(F)(F)F)cc1` was tested. Which pIC50 did it give?
A: 5.37

Q: How did the IC50 turn out when `CCCOC(=O)c1ccc(Oc2cn[nH]c2-c2ccc(OCC)cc2O)cc1` was run?
A: inactive
